Laboratory results from publication PMC6282583 (Chemmedchem, 2018).

Experiments:
endothiapepsin [1] = biological target: T1, endothiapepsin (Cryphonectria parasitica, UniProt P11838); assay: fluorescence-based protease assay adapted from HIV-protease assay; type: biochemical
T1 sequence (P11838 90-419): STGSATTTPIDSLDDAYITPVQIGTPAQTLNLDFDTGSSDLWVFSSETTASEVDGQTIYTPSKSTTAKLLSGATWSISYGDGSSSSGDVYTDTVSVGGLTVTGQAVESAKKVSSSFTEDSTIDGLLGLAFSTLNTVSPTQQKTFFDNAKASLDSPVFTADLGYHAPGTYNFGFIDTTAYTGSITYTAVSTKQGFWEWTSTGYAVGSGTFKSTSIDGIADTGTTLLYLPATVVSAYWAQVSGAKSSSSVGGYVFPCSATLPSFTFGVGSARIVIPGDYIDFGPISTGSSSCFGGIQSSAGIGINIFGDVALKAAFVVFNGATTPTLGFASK

endothiapepsin [2] = biological target: T1, endothiapepsin; assay: as above; type: biochemical; remark: listed apart in the source

Compound | Ki (endothiapepsin [1]) | IC50 (endothiapepsin [2])
Cc1cc(C)c(CCNC(=O)[C@@H](N)Cc2c[nH]c3ccccc23)c(C)c1 [(S)-2] | 6.1 ± 0.4 µM | 12.9 ± 0.7 µM
Cc1cc(C)c(CCOC(=O)[C@@H](N)Cc2c[nH]c3ccccc23)c(C)c1 [(S)-3] | 13.5 ± 1.9 µM | 28.7 ± 4.1 µM
Cc1cc(C)c(Cc2csc([C@@H](N)Cc3c[nH]c4ccccc34)n2)c(C)c1 [(S)-4] | 91.2 ± 5.4 µM | 194 ± 11.4 µM
